What was measured:
Assay type in all cases: tissue-based, Heart left ventricle; call rule not given here
[1] = Inhibition of Sus scrofa (pig) left ventricle Ca2+-ATPase activity of cardiac myosin assessed as inorganic phosphorus released from protein at > 0.1 uM after 10 min
[2] = Inhibition of Sus scrofa (pig) left ventricle Ca2+-ATPase activity of cardiac myosin assessed as inorganic phosphorus released from protein at 0.2 uM after 1 hr
[3] = Inhibition of Sus scrofa (pig) left ventricle Ca2+-ATPase activity of cardiac myosin assessed as inorganic phosphorus released from protein at 0.05 to 0.4 uM
[4] = Inhibition of Sus scrofa (pig) left ventricle Ca2+-ATPase activity of cardiac myosin assessed as inorganic phosphorus released from protein at 0.2 uM after 10 min
[5] = Inhibition of Sus scrofa (pig) left ventricle Ca2+-ATPase activity of cardiac myosin assessed as inorganic phosphorus released from protein at 0.4 uM in presence of Mg2+
[6] = Inhibition of Sus scrofa (pig) left ventricle Ca2+-ATPase activity of cardiac myosin assessed as residual activity at 0.8 uM
[7] = Inhibition of Sus scrofa (pig) left ventricle Ca2+-ATPase activity of cardiac myosin assessed as inorganic phosphorus released from protein at 0.2 to 1 uM; conditions: TDE = time-dependent effect
[8] = Inhibition of Sus scrofa (pig) left ventricle Ca2+-ATPase activity of cardiac myosin assessed as inorganic phosphorus released from protein at 0.05 uM after 30 min; conditions: 0.5 h

inhibition (INH) [1]: Active
inhibition (INH) [2]: Active
inhibition (INH) [3]: Active
inhibition (INH) [4]: Active
inhibition (INH) [5]: Not Active
Activity [6]: 0.12 U
inhibition (INH) [7]: tde
inhibition (INH) [8]: Active
SMILES: COc1cccc2c1C(=O)c1c(O)c3c(c(O)c1C2=O)C[C@@](O)(C(C)=O)C[C@@H]3O[C@H]1C[C@H](N)[C@H](O)[C@H](C)O1 [DAUNORUBICIN]
